Reference: patent US20240279225A1, “COMPOUNDS AND METHODS FOR THERANOSTIC TARGETING OF PARP ACTIVITY” (BOARD OF REGENTS, THE UNIVERSITY OF TEXAS SYSTEM, priority 2021, published 2024)
“Also recorded” adds a separate entry of the source. Read-outs that look alike come from different tables or passages of the source.

How the values were obtained:
PARP1 [1] = target: T1, PARP1 (Homo sapiens, UniProt P09874); details: purified enzyme assays, background values; cited from earlier work
[2] = humans, eight subjects with cancer and eight healthy volunteers; cited from earlier work
[3] = mouse models, cited from earlier work
PARP1 [4] = target: T2, PARP1 (Mus musculus, UniProt P11103); assay: In vivo whole body biodistribution and blocking by small animal PET/CT
T2 construct: from tissue; host or cells: Lymphoid tissue and liver of a living nude female mouse
T2 sequence (P11103 whole entry): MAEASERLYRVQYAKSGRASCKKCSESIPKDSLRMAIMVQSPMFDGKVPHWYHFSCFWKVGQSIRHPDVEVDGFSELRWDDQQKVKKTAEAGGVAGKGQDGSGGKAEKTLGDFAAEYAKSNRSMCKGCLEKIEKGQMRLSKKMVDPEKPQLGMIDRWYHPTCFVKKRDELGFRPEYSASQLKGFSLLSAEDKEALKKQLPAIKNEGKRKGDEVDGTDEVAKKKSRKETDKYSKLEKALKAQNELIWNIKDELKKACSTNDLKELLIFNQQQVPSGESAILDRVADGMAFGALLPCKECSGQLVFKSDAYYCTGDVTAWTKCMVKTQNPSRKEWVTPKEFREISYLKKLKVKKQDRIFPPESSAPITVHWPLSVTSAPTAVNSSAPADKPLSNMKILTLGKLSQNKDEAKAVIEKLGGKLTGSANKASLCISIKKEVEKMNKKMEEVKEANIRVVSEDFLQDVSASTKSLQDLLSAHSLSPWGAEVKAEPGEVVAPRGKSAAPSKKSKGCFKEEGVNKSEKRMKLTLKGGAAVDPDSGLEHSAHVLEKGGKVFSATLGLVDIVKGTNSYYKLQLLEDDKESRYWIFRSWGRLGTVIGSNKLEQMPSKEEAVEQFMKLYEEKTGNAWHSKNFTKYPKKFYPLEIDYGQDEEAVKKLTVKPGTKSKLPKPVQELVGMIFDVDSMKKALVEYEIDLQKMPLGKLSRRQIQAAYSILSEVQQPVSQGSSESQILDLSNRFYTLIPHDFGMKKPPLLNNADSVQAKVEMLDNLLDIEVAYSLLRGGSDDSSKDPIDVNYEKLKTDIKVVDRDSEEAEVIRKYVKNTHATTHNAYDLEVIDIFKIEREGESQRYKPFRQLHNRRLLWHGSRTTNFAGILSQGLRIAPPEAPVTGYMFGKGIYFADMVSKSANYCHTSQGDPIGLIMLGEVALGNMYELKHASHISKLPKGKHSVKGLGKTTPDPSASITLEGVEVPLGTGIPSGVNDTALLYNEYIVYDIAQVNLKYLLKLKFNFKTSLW
Procedure: Preliminary PET images were acquired for 10 min using a 15 cm field of view (FOV); CT images were acquired for fusion using a 7 cm FOV and automatically “stitched” and fused to the PET imaging in the reconstruction software (Albira Suite, Bruker). […] Image data were decay corrected to injection time (Albira, Bruker) and expressed as % ID/cc or SUV as indicated (PMOD, PMOD Technologies). Actual injected dose was calculated based on measuring the pre- and post-injection activity in the syringe with a dose calibrator (Capintec) and mice were individually weighed to calculate individual standardized uptake values (SUV).
In vivo whole body biodistribution and blocking experiments were performed using a small animal PET/CT scanner after the injection of ^18F-Talazoparib (˜100 μCi) in a nude female mouse; images were acquired two hours post injection and decay corrected to the injection time.

MCF-7 empty vector cells = assay: Cellular uptake of ^18F-Talazoparib, MCF-7 empty vector cells; format: cell-based
Procedure: (§1) All experiments were performed in quadruplicate in a 24 well plate format. […] Experiment that abrogated metabolism were performed at 4° C., a temperature at which cellular membranes become less fluid and permeability is low. After 120 min, an aliquot of the cell media (200 μl) was obtained for gamma counting, the remaining media removed, and cells washed with MEBSS. Cells were then lysed with 1% SDS, 10 mM sodium borate for 30 min at room temperature. […] Protein contents were quantified using BCA protein assay kit (Thermos Scientific) according to the manufacture's protocol using bovine serum albumin (BSA) as the protein standard.

[5] = Stability in full human plasma at 37° C.; format: in vitro ADME
[6] = Shelf stability in PBS (10% EtOH); format: physicochemical
[7] = tested on: MCF-7 cells stably transfected with MDR1 P-glycoprotein (Pgp); assay: Cellular uptake of ^18F-Talazoparib, MCF-7 cells expressing MDR1 Pgp
Procedure: as §1

PARP1 [8] = target: T1, PARP1; assay: PARP1 apoptosis assay kit (Trevigen), inhibition of purified PARP1 enzyme activity; format: biochemical; details: racemic mixture, three replicates per concentration

T1 sequence (P09874 whole entry): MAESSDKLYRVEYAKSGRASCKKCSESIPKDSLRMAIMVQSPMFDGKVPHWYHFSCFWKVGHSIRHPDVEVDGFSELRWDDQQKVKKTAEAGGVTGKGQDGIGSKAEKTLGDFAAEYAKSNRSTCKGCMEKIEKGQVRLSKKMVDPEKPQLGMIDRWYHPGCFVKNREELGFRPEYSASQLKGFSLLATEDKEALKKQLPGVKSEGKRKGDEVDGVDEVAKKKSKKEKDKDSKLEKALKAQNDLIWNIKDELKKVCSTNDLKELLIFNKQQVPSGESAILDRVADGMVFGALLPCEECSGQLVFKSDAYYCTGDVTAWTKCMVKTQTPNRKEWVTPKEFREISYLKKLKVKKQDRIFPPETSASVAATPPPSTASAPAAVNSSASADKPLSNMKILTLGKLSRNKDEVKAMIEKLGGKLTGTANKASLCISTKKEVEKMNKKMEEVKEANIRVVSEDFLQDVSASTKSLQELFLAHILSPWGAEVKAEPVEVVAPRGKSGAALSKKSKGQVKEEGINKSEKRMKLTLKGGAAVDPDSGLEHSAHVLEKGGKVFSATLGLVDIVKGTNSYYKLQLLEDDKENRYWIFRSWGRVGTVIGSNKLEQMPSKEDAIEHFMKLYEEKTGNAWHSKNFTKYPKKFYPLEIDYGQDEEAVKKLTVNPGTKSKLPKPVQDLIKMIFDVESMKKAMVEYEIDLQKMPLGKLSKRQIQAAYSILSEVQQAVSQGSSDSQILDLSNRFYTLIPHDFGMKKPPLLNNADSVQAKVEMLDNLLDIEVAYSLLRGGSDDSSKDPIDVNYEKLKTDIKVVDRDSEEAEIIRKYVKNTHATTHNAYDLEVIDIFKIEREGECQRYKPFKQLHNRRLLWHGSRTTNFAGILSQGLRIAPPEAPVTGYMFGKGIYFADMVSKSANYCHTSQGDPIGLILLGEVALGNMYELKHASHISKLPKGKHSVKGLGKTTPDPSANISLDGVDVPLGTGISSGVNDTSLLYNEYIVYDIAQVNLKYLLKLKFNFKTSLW

For `O=C1NCCn2c(-c3ccc(OCCF)cc3)nc3cccc1c32` [^18F-FTT], the IC50 (PARP1 [1]) is listed as 6.3 nM.
For `O=C1NCCn2c(-c3ccc(OCC[18F])cc3)nc3cccc1c32` [^18F-FTT], the “organ uptake on PET imaging” value [2] is given as “high uptake in spleen, pancreas, and liver”, the “intact parent molecule observed in the blood” value ([3]; after 5 minutes) is given as 55% and the “intact parent molecule observed in the blood” value ([3]; after 30 min) is given as 13%.
In the case of `Cn1ncnc1C1c2n[nH]c(=O)c3cc([18F])cc(c23)NC1c1ccc(F)cc1` (stereo not drawn) [^18F-Talazoparib, 5-[^18F]fluoro-8-(4-fluorophenyl)-9-(1-methyl·1H·1,2,4-triazol-5-yl)-2,7,8,9-tetrahydro-3H-pyrido[4,3,2-de]phthalazin-3-one], the “blocking of lymphoid tissue and liver uptake by cold Talazoparib” value (PARP1 [4]; 0.3 mg/kg cold Talazoparib IV 60 minutes before tracer) is reported as “could be blocked by excess cold Talazoparib; also recorded: blockade of target engagement of PARP1”, the excretion pathway (PARP1 [4]; 2 hr static images, vehicle-treated nude mice) is reported as “mixed excretion pathway (renal and hepatobiliary clearance)” and the “tissue uptake on PET images” value (PARP1 [4]; nude female mouse, ~100 μCi, two hours post injection) is reported as “uptake in the lymphoid tissue (LT) located at the base of the neck, in the liver (L), and in excretory organs, such as bladder and intestine”. For the same compound, the “cell uptake in presence of excess non-radioactive Talazoparib” value (MCF-7 empty vector cells; 37° C., 100 nM non-radioactive Talazoparib preincubated 30 min) was “completely blocked”, the “cell uptake of tracer” value (MCF-7 empty vector cells; 120 min incubation at 37° C., compared to 4° C.) was “high uptake of the tracer compared to cells incubated at 4 °C” and the “effect of MDR inhibitors on cell uptake” value (MCF-7 empty vector cells; LY-335979 or CP-100356 preincubated 30 min) was “no effect”. The “stable in full human plasma” value [5] was “up to 4 h”, the shelf stability [6] was “up to 4 h” and the “MDR1 Pgp transport substrate” value [7] was “recognized as a transport substrate by MDR1 Pgp”. The “basal retention at 4° C.” value ([7]; MDR1 Pgp expressed, 4° C.) was “further reduced”, the “net retention of tracer” value ([7]; MDR1 Pgp expressed, 37° C., 120 min) was “drastic decrease in the net retention” and the “basal retention with excess cold Talazoparib” value ([7]; MDR1 Pgp expressed, excess cold Talazoparib) was “fully displaced”. For the same compound, the “cellular retention with Pgp-mediated efflux inhibited” value ([7]; MDR1 Pgp expressed, with LY or CP) was “increased back to levels compared to MCF-7 cells lacking MDR1 Pgp”.
Compound “methyl 2-(4-bromophenyl)-7-fluoro-3-(1-methyl-1H-1,2,4-triazol-5-yl)-4-oxo-1,2,3,4-tetrahydroquinoline-5-carboxylate [Compound 1]” has an IC50 (PARP1 [8]) of 2.33 nM.
